Measurements reported in patent US8173689B2 (Novartis AG, priority 2006, dated 2012).
Read-outs that look alike come from different tables or passages of the source.

Assays:
kinase domain of PDGFRβ = target: T1, kinase domain of PDGFRβ (Homo sapiens, UniProt P09619); assay: Inhibition of PDGFRb kinase signaling in an in vitro biochemical assay (alphascreen); conditions: tested at about 1 μM, read-out: PDGFRβ percent inhibition
T1 construct: The kinase domain of PDGFRβ was assayed in 50 mM Hepes; purchased Invitrogen P3082
T1 sequence (P09619 600-962 limits assumed): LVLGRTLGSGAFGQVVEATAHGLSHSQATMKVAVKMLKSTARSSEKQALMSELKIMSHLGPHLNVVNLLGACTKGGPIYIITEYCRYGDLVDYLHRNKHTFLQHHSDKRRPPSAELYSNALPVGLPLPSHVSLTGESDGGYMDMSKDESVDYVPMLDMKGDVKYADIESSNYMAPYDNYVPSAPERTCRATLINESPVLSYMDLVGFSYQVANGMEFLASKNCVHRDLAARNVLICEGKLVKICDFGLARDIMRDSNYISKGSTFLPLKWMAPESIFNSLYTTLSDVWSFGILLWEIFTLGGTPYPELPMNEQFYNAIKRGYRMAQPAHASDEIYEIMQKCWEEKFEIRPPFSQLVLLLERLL

[1] = system: MNFS60 (murine AML cells); assay: Cell viability assay in MCSF dependent MNFS60 cells (Cell Titer Glo); format: cell-based; conditions: Mus musculus, tested at about 1 μM, read-out: M-NFS-60 CP percent inhibition
Method in brief: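 3-fold DMSO dilution series (500× stocks); MCSF 10 ng/ml final; 72 hrs, 37° C., 5% CO2; CellTiter-Glo read-out; n=3; EC50 fitted.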

kinase domain of cKIT = target: T2, kinase domain of cKIT (Homo sapiens, UniProt P10721); assay: Inhibition of cKIT kinase signaling in an in vitro biochemical assay (alphascreen); conditions: tested at about 1 μM, read-out: cKit percent inhibition
T2 construct: The kinase domain of cKIT was assayed in 50 mM Hepes; purchased Upstate 14-559
T2 sequence (P10721 589-937 limits assumed): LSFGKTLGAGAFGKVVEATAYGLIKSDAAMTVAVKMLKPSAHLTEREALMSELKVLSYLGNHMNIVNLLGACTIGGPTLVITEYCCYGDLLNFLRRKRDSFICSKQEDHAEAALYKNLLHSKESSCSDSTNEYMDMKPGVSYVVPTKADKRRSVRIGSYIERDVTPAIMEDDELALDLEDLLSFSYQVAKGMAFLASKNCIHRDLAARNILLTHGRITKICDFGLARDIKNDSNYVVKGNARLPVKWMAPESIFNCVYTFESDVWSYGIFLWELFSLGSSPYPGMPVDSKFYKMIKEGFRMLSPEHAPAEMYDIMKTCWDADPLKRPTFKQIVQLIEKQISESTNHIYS

[2] = target: T3, cytoplasmic domain of the human CSF-1R (Homo sapiens, UniProt P07333); assay: In vitro kinase assay for colony stimulating factor-1 receptor (AlphaScreen); format: biochemical; conditions: tested at about 1 μM, read-out: CSF-1R percent inhibition
T3 construct: Recombinant protein corresponding to the cytoplasmic domain of the human CSF-1R; purchased Invitrogen Corporation, Carlsbad, Calif; PV3249
T3 sequence (P07333 539-972 limits assumed): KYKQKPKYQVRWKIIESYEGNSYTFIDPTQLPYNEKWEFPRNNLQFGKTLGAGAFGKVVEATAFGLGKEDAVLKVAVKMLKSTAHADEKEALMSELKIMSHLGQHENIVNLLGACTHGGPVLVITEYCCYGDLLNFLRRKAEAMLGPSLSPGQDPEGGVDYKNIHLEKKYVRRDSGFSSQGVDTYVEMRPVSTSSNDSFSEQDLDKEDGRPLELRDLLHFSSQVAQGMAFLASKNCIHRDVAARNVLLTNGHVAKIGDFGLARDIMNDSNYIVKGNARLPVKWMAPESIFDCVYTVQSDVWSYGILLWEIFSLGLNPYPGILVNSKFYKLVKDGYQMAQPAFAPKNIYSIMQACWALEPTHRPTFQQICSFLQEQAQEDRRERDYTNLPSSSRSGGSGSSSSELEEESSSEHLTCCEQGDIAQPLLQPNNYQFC
Method in brief: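 Kinase reaction used 4 nM recombinant cytoplasmic domain at 1 μM ATP in 50 mM Hepes pH 7.5 with 5 mM MgCl2, 10 mM MnCl2, 0.1% BSA, 1.0 mM DTT and 0.01% Tween 80. Compounds were serially diluted 3-fold from 25 μM. Phosphopeptide was detected by AlphaScreen, PT66 anti-phosphotyrosine acceptor plus streptavidin donor beads, read after overnight incubation.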

[3] = target: T4, full-length human CSF-1R receptor (Homo sapiens, UniProt P07333); assay: In vitro inhibition of CSF-1R receptor tyrosine phosphorylation in transfected HEK293H cells stimulated with MCSF; format: cell-based; conditions: HEK293-H, tested at about 1 μM, read-out: pCSF1R percent inhibition
T4 construct: transfected with the full-length human CSF-1R receptor cloned in house; expressed in transfected cells; host or cells: HEK293H (Invitrogen Cat. #11631017)
T4 sequence (P07333 20-972): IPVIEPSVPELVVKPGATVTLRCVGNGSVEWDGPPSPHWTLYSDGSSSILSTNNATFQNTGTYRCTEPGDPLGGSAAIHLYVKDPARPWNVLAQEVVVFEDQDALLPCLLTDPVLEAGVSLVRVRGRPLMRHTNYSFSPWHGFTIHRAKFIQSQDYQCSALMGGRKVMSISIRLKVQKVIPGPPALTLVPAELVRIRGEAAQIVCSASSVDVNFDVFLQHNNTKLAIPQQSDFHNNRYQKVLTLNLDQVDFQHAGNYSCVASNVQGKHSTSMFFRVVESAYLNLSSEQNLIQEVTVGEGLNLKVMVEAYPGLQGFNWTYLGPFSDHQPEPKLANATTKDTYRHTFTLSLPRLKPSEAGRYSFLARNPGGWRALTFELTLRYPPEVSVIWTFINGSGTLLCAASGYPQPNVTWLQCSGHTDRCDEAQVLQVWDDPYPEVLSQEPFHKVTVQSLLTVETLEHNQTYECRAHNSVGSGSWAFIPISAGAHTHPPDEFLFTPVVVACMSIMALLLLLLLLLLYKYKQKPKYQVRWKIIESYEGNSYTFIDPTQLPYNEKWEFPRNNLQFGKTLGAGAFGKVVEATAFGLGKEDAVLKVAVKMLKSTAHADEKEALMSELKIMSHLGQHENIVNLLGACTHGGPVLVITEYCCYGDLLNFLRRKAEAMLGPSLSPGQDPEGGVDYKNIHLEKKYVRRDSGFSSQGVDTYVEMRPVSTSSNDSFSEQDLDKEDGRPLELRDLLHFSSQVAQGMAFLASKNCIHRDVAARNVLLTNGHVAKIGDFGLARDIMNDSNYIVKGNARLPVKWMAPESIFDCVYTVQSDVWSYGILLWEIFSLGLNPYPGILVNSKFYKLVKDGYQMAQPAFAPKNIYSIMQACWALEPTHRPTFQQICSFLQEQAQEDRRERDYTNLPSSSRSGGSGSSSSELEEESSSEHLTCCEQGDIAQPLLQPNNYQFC
Method: The lysate was then transferred to total CSF-1R antibody coated 96-well plates that had already been blocked with 3% Blocker A from Mesoscale discovery (MSD) for 2 hours and washed afterwards. Lysates were incubated overnight at 4° C. and the plates were then washed 4× with MSD Tris Wash Buffer. […] The plates were read on the Sector 6000 instrument (MSD). Raw data was imported in Abase and EC50s calculated with XL-fit data analysis software.

CNC(=O)c1cc(Oc2ccc3nc(NCC4CCCN(S(C)(=O)=O)C4)sc3c2)ccn1 (centres unmarked) [Example 308, N-methyl-4-(2-((1-(methylsulfonyl)piperidin-3-yl)methylamino)benzo[d]thiazol-6-yloxy)picolinamide]
inhibition at 1 µM (kinase domain of PDGFRβ): 27% | inhibition at 1 µM ([1]; MCSF dependent MNFS60 cells): 54% | inhibition at 1 µM (kinase domain of cKIT): 51% | inhibition at 1 µM [2]: 100% | inhibition at 1 µM ([3]; HEK293H cells): 81%

CNC(=O)c1cc(Oc2ccc3nc(NCc4ccccc4C(F)(F)F)oc3c2)ccn1 [Compound 97, 4-[2-(2-Trifluoromethyl-benzylamino)-benzooxazol-6-yloxy]-pyridine-2-carboxylic acid methylamide]
inhibition at 1 µM (kinase domain of PDGFRβ): 5% | inhibition at 1 µM ([1]; MNFS60 cells): 67% | inhibition at 1 µM (kinase domain of cKIT): 99% | inhibition at 1 µM [2]: 99% | inhibition at 1 µM ([3]; HEK293H cells): 84%

CNC(=O)c1cc(Oc2ccc3nc(N[C@H](C)C4CCCCC4)sc3c2)ccn1 [Compound 138, 4-[2-((R)-1-Cyclohexyl-ethylamino)-benzothiazol-6-yloxy]-pyridine-2-carboxylic acid methylamide]
inhibition at 1 µM (kinase domain of PDGFRβ): 93% | inhibition at 1 µM ([1]; MNFS60 cells): 100% | inhibition at 1 µM (kinase domain of cKIT): 93% | inhibition at 1 µM [2]: 99% | inhibition at 1 µM ([3]; HEK293H cells): 88%

CNC(=O)c1cc(Oc2ccc3nc(N[C@H]4c5ccccc5C[C@H]4O)sc3c2)ccn1 [Example 321, 4-(2-((1S,2R)-2-hydroxy-2,3-dihydro-1H-inden-1-ylamino)benzo[d]thiazol-6-yloxy)-N-methylpicolinamide]
inhibition at 1 µM (kinase domain of PDGFRβ): 41% | inhibition at 1 µM ([1]; MCSF dependent MNFS60 cells): 82% | inhibition at 1 µM (kinase domain of cKIT): 52% | inhibition at 1 µM [2]: 100% | inhibition at 1 µM ([3]; HEK293H cells): 97%

CNC(=O)c1cc(Oc2ccc3nc(NCc4ccccc4F)sc3c2)ccn1 [Compound 140, 4-[2-(2-Fluoro-benzylamino)-benzothiazol-6-yloxy]-pyridine-2-carboxylic acid methylamide]
inhibition at 1 µM (kinase domain of PDGFRβ): 0% | inhibition at 1 µM ([1]; MNFS60 cells): 52% | inhibition at 1 µM (kinase domain of cKIT): 92% | inhibition at 1 µM [2]: 100% | inhibition at 1 µM ([3]; HEK293H cells): 90%

O[C@@H]1CCCC[C@H]1Nc1nc2ccc(Oc3ccnc(-c4cnn(CCF)c4)c3)cc2s1 [Example 259, (1R,2R)-2-(6-(2-(1-(2-fluoroethyl)-1H-pyrazol-4-yl)pyridin-4-yloxy)benzo[d]thiazol-2-ylamino)cyclohexanol]
inhibition at 1 µM (kinase domain of PDGFRβ; compounds of Table 3): 6% | inhibition at 1 µM ([1]; compounds of Table 3): 100% | inhibition at 1 µM (kinase domain of cKIT; compounds of Table 3): 24% | inhibition at 1 µM ([2]; compounds of Table 3): 100% | inhibition at 1 µM ([3]; compounds of Table 3): 98%

CNC(=O)c1cc(Oc2ccc3nc(NCc4ccc(Cl)cc4Cl)sc3c2)ccn1 [Compound 130, 4-[2-(2,4-Dichloro-benzylamino)-benzothiazol-6-yloxy]-pyridine-2-carboxylic acid methylamide]
inhibition at 1 µM (kinase domain of PDGFRβ): 25% | inhibition at 1 µM ([1]; MNFS60 cells): 72% | inhibition at 1 µM (kinase domain of cKIT): 87% | inhibition at 1 µM [2]: 99% | inhibition at 1 µM ([3]; HEK293H cells): 85%

CNC(=O)c1cc(Oc2ccc3nc(NCc4ccncc4)sc3c2)ccn1 [Compound 139]
inhibition at 1 µM (kinase domain of PDGFRβ; compounds of Table 3): 19% | inhibition at 1 µM ([1]; compounds of Table 3): 46% | inhibition at 1 µM (kinase domain of cKIT; compounds of Table 3): 24% | inhibition at 1 µM ([2]; compounds of Table 3): 100% | inhibition at 1 µM ([3]; compounds of Table 3): 88%

CN(C)c1ncc(-c2cc(Oc3ccc4nc(N[C@@H]5CCCC[C@H]5O)sc4c3)ccn2)cn1 [Example 286, (1R,2R)-2-(6-(2-(2-(dimethylamino)pyrimidin-5-yl)pyridin-4-yloxy)benzo[d]thiazol-2-ylamino)cyclohexanol]
inhibition at 1 µM (kinase domain of PDGFRβ; compounds of Table 3): 0% | inhibition at 1 µM ([1]; compounds of Table 3): 71% | inhibition at 1 µM (kinase domain of cKIT; compounds of Table 3): 23% | inhibition at 1 µM ([2]; compounds of Table 3): 100% | inhibition at 1 µM ([3]; compounds of Table 3): 94%

CNC(=O)c1cc(Oc2ccc3nc(N[C@H](CO)C4CCCCC4)oc3c2)ccn1 [Compound 66, 4-[2-((S)-1-Cyclohexyl-02-hydroxy-ethylamino)-benzo-oxazol-6-yloxy]-pyridine-2-carboxylic acid methylamide]
inhibition at 1 µM (kinase domain of PDGFRβ): 37% | inhibition at 1 µM ([1]; MNFS60 cells): 18% | inhibition at 1 µM (kinase domain of cKIT): 55% | inhibition at 1 µM [2]: 100% | inhibition at 1 µM ([3]; HEK293H cells): 37%

CNC(=O)c1cc(Oc2ccc3nc(NC4CCCCNC4=O)sc3c2)ccn1 (centres unmarked) [Compound 93]
inhibition at 1 µM (kinase domain of PDGFRβ; compounds of Table 3): 0% | inhibition at 1 µM ([1]; compounds of Table 3): 23% | inhibition at 1 µM (kinase domain of cKIT; compounds of Table 3): 12% | inhibition at 1 µM ([2]; compounds of Table 3): 100% | inhibition at 1 µM ([3]; compounds of Table 3): 47%

CNC(=O)c1cc(Oc2ccc3nc(Nc4cccc(OC)c4)sc3c2)ccn1 [Compound 32]
inhibition at 1 µM (kinase domain of PDGFRβ; compounds of Table 3): 11% | inhibition at 1 µM ([1]; compounds of Table 3): 65% | inhibition at 1 µM (kinase domain of cKIT; compounds of Table 3): 45% | inhibition at 1 µM ([2]; compounds of Table 3): 100% | inhibition at 1 µM ([3]; compounds of Table 3): 93%

Nc1ccc(-c2cc(Oc3ccc4nc(N[C@@H]5CCCC[C@H]5O)sc4c3)ccn2)cn1 [Example 261, (1R,2R)-2-(6-(6'-amino-2,3'-bipyridin-4-yloxy)benzo[d]thiazol-2-ylamino)cyclohexanol]
inhibition at 1 µM (kinase domain of PDGFRβ; compounds of Table 3): 30% | inhibition at 1 µM ([1]; compounds of Table 3): 100% | inhibition at 1 µM (kinase domain of cKIT; compounds of Table 3): 25% | inhibition at 1 µM ([2]; compounds of Table 3): 100% | inhibition at 1 µM ([3]; compounds of Table 3): 98%
